In patent US20050009840A1 (SUGEN, INC., priority 2003, published 2005) one finds IC50 data, which are given here for 34 compounds.

In the assay the target is T1, Met kinase domain (GST fusion protein) (Homo sapiens, UniProt P08581).
T1 construct: Purified GST fusion protein containing the Met kinase domain
The experiment in a line: Met transphosphorylation assay (ELISA, poly(glu-tyr) substrate).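 Also: Cell-free ELISA with plate-bound poly(Glu:Tyr 4:1) phosphorylated by GST-fused Met kinase domain plus ATP and Mn2+, phosphotyrosine detected by anti-phosphotyrosine antibody with HRP and ABTS read-out.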 Format: biochemical. Conditions: read-out: Met IC50.

Setting [1] is: plain numbers in column Met IC50 (μM) of Table 2.

Read-outs that look alike come from different tables or passages of the source. A value given as a limit tells only on which side of the number the result lay.

T1 sequence (P08581 1078-1345 limits assumed): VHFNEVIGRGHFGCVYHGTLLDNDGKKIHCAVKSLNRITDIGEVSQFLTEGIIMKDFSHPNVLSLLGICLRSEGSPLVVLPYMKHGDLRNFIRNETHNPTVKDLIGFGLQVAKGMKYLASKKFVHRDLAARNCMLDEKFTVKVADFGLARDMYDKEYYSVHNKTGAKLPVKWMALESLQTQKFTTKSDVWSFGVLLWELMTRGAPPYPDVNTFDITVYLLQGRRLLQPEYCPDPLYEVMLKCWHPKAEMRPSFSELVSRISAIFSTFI

As for `CC(Oc1cc(-c2cccc(C(=O)N3CC[C@H](N)C3)c2)cnc1N)c1c(F)ccc(F)c1Cl` (stereo partly drawn) [Example I-349, (3-{6-Amino-5-[1-(2-chloro-3,6-difluoro-phenyl)-ethoxy]-pyridin-3-yl}-phenyl)-((S)-3-amino-pyrrolidin-1-yl)-methanone], the IC50 (Table 2) is 0.13 µM.

Turning to `Nc1ncc(-c2ccc(N3CCCS3(=O)=O)cc2)nc1OCc1c(Cl)cccc1Cl` [II-2, 3-(2,6-Dichloro-benzyloxy)-5-[4-(1,1-dioxo-1λ^6-isothiazolidin-2-yl)-phenyl]-pyrazin-2-ylamine], the IC50 was determined as 0.825 µM.

As to `CC(Oc1cc(C#CCNC(=O)NCCCN2CCCC2)cnc1N)c1c(Cl)ccc(F)c1Cl` (stereo not shown) [Example I-417, 1-(3-{6-Amino-5-[1-(2,6-dichloro-3-fluoro-phenyl)-ethoxy]-pyridin-3-yl}-prop-2-ynyl)-3-(3-pyrrolidin-1-yl-propyl)-urea], the IC50 under setting [1] was 0.062 µM.

With `CC(Oc1cc(-c2cccc(C(=O)NCCN3CCCC3)c2)cnc1N)c1c(F)ccc(F)c1Cl` (stereo not shown) [Example I-348, 3-{6-Amino-5-[1-(2-chloro-3,6-difluoro-phenyl)-ethoxy]-pyridin-3-yl}-N-(2-pyrrolidin-1-yl-ethyl)-benzamide], for the setting “Table 2”, the IC50 was 0.2 µM.

On to `Nc1ncc(-c2ccc(NS(=O)(=O)CCNC3CC3)cc2)cc1OCc1c(F)ccc(F)c1Cl` [Example I-244, 2-Cydopropylamino-ethanesulfonic acid {4-[6-amino-5-(2-chloro-3,6-difluoro-benzyloxy)-pyridin-3-yl]-phenyl}-amide], for which the IC50 (Table 2) is 0.081 µM.

With `CCN(CC)CC(=O)NCC#Cc1cnc(N)c(OC(C)c2c(Cl)ccc(F)c2Cl)c1` (stereo not shown) [Example I-430, N-(3-{6-Amino-5-[1-(2,6-dichloro-3-fluoro-phenyl)-ethoxy]-pyridin-3-yl}-prop-2-ynyl)-2-diethylamino-acetamide], the half-maximal inhibitory concentration (IC50) under setting [1] turned out to be 0.013 µM.

On to `CC(Oc1cc(-c2ccc(C(=O)N3CCC[C@@H]3CO)cc2)cnc1N)c1c(Cl)ccc(F)c1Cl` (stereo partly drawn) [Example I-308, (4-{6-Amino-5-[1-(2,6-dichloro-3-fluoro-phenyl)-ethoxy]-pyridin-3-yl}-phenyl)-((R)-2-hydroxymethyl-pyrrolidin-1-yl)-methanone], for which the IC50 (Table 2) worked out at 0.033 µM.

Take `CCN(CC)CCNC(=O)c1ccc(-c2cnc(N)c(OC(C)c3c(Cl)ccc(F)c3Cl)c2)cc1` (stereo not shown) [Example I-309, 4-{6-Amino-5-[1-(2,6-dichloro-3-fluoro-phenyl)-ethoxy]-pyridin-3-yl}-N-(2-diethylamino-ethyl)-benzamide]: the IC50 (Table 2) is 0.04 µM.

As for `Nc1ncc(-c2ccccc2C(F)(F)F)cc1OCc1c(Cl)cccc1Cl` [Example I-23, 3-(2,6-Dichloro-benzyloxy)-5-(2-trifluoromethyl-phenyl)-pyridin-2-ylamine], the IC50 was greater than 20 µM.

As for `CC(Oc1cc(-c2ccc(NS(=O)(=O)CCNC3CC3)cc2)cnc1N)c1c(Cl)ccc(F)c1Cl` (stereo not shown) [Example I-297, 2-Cyclopropylamino-ethanesulfonic acid (4-{6-amino-5-[1-(2,6-dichloro-3-fluoro-phenyl)-ethoxy]-pyridin-3-yl}-phenyl)-amide], the half-maximal inhibitory concentration (IC50) (Table 2) is 0.164 µM.

As to `CC(Oc1nc(-c2ccc(C(=O)NCCN3CCCC3)cc2)cnc1N)c1c(Cl)cccc1Cl` (stereo not shown) [II-166, 4-{5-Amino-6-[1-(2,6-dichloro-phenyl)-ethoxy]-pyrazin-2-yl}-N-(2-pyrrolidin-1-yl-ethyl)-benzamide], the IC50 is 0.11 µM.

Consider `CC(Oc1nc(-c2cccc(C(=O)N3CC[C@H](N)C3)c2)cnc1N)c1c(Cl)cccc1Cl` (stereo partly drawn) [II-179, (3-{5-Amino-6-[1-(2,6-dichloro-phenyl)-ethoxy]-pyrazin-2-yl}-phenyl)-((S)-3-amino-pyrroldin-1-yl)-methanone], for which the IC50 is 0.11 µM.

On to `COc1cccc(-c2cnc(N)c(OCc3c(Cl)cccc3Cl)c2)c1` [Example I-32, 3-(2,6-Dichloro-benzyloxy)-5-(3-methoxy-phenyl)-pyridin-2-ylamine], for which the IC50 turned out to be 4.01 µM.

As to `CC(C)c1cccc(-c2cnc(N)c(OCc3c(Cl)cccc3Cl)c2)c1` [Example I-22, 3-(2,6-Dichloro-benzyloxy)-5-(3-isopropyl-phenyl)-pyridin-2-ylamine], the IC50 was 15.9 µM.

Take `Nc1ncc(-c2cccc(NS(=O)(=O)CCNCC3CC3)c2)cc1OCc1c(F)ccc(F)c1Cl` [Example I-265, 2-(Cyclopropylmethyl-amino)-ethanesulfonic acid {3-[6-amino-5-(2-chloro-3,6-difluoro-benzyloxy)-pyridin-3-yl]-phenyl}-amide]: the IC50 (Table 2) came out at 1 µM.

For `Nc1ncc(-c2ccc(OCCN3CCOCC3)cc2)cc1OCc1csc2ccc(Cl)cc12` [Example I-110, 3-(5-Chloro-benzo[b]thiophen-3-ylmethoxy)-5-[4-(2-morpholin-4-yl-ethoxy)-phenyl]-pyridin-2-ylamine], the IC50 was found to be 2.4 µM.

With `CC(Oc1cc(-c2ccc(C(=O)NC3CCN(C)CC3)cc2)cnc1N)c1c(F)ccc(F)c1Cl` (stereo not shown) [Example I-332, 4-{6-Amino-5-[1-(2-chloro-3,6-difluoro-phenyl)-ethoxy]-pyridin-3-yl}-N-(1-methyl-piperidin-4-yl)-benzamide], the IC50 (Table 2) is 0.079 µM.

As for `CN1CCN(C(=O)c2ccc(-c3cnc(N)c(OCc4ccc(Cl)cc4Cl)c3)cc2)CC1` [Example I-177, {4-[6-Amino-5-(2,4-dichloro-benzyloxy)-pyridin-3-yl]-phenyl}-(4-methyl-piperazin-1-yl)-methanone], the IC50 worked out at 0.79 µM.

With `Nc1ncc(-c2ccc(C(=O)N3CC[C@H](N)C3)cc2)cc1OCc1c(F)ccc(F)c1Cl` [Example I-219, {4-[6-Amino-5-(2-chloro-3,6-difluoro-benzyloxy)-pyridin-3-yl]-phenyl}-[(3S)-3-amino-pyrrolidin-1-yl]-methanone], the IC50 (Table 2) worked out at 0.095 µM.

Consider `C[C@@H]1CN(Cc2c[nH]c3ccc(-c4cnc(N)c(OCc5c(Cl)cccc5Cl)c4)cc23)C[C@H](C)O1` [Example I-66, 3-(2,6-Dichloro-benzyloxy)-5-[3-(2,6-dimethyl-morpholin-4-ylmethyl)-1H-indol-5-yl]-pyridin-2-ylamine], for which the IC50 is greater than 20 µM.

In the case of `CC(Oc1cc(-c2cccc(C(=O)NC3CCN(C)CC3)c2)cnc1N)c1c(Cl)cccc1Cl` (stereo not shown) [Example I-394, 3-{6-Amino-5-[1-(2,6-dichloro-phenyl)-ethoxy]-pyridin-3-yl}-N-(1-methyl-piperidin-4-yl)-benzamide], the IC50 under setting [1] amounted to 0.061 µM.

Consider `Nc1ncc(-c2ccc(C(=O)N3CCC[C@H]3CN3CCCC(F)C3)cc2)cc1OCc1c(Cl)cccc1Cl` (stereo partly drawn) [Example I-47, {4-[6-Amino-5-(2,6-dichloro-benzyloxy)-pyridin-3-yl]-phenyl}-[(2S)-2-(3-fluoro-piperidin-1-ylmethyl)-pyrrolidin-1-yl]-methanone], for which the IC50 came to 0.42 µM.

Consider `CC(Oc1nc(-c2cccc(C(=O)N3CCC[C@H]3CN3CCCC3)c2)cnc1N)c1c(Cl)cccc1Cl` (stereo partly drawn) [II-173, (3-{5-Amino-6-[1-(2,6-dichloro-phenyl)-ethoxy]-pyrazin-2-yl}-phenyl)-((S)-2-pyrrolidin-1-ylmethyl-pyrrolidin-1-yl)-methanone], for which the half-maximal inhibitory concentration (IC50) came to 0.18 µM.

For `CC(Oc1cc(-c2cccc(C(=O)N3CC[C@@H](N)C3)c2)cnc1N)c1c(Cl)cccc1Cl` (stereo partly drawn) [Example I-398, (3-{6-Amino-5-[1-(2,6-dichloro-phenyl)-ethoxy]-pyridin-3-yl}-phenyl)-((R)-3-amino-pyrrolidin-1-yl)-methanone], the IC50 under setting [1] is 0.072 µM.

Consider `Nc1ncc(-c2cncnc2)cc1OCc1c(Cl)cccc1Cl` [Example I-508, 3-(2,6-Dichloro-benzyloxy)-pyrimidin-5-yl-pyridin-2-ylamine], for which, under setting [1], the IC50 came out at 10.3 µM.

Take `CC(Oc1cc(-c2ccc(NS(=O)(=O)CCN3CCCCC3)cc2)cnc1N)c1c(F)ccc(F)c1Cl` (stereo not shown) [Example I-286, 2-Piperidin-1-yl-ethanesulfonic acid (4-{6-amino-5-[1-(2-cloro-3,6-difluoro-phenyl)-ethoxy]-pyridin-3-yl}-phenyl)-amide]: the IC50 (Table 2) worked out at 0.18 µM.

In the case of `CC(=O)N1CCN(CCNC(=O)c2cccc(-c3cnc(N)c(OCc4c(F)ccc(F)c4Cl)c3)c2)CC1` [Example I-239, N-[2-(4-Acetyl-piperazin-1-yl)-ethyl]-3-[6-amino-5-(2-chloro-3,6-difluoro-benzyloxy)-pyridin-3-yl]-benzamide], the 50% inhibitory concentration (IC50) (Table 2) came out at 0.1 µM.

In the case of `CC(Oc1nc(-c2cccc(C(=O)N3CCC(N4CCCC4)CC3)c2)cnc1N)c1c(Cl)cccc1Cl` (stereo not shown) [II-174, (3-{5-Amino-6-[1-(2,6-dichloro-phenyl)-ethoxy]-pyrazin-2-yl}-phenyl)-(4-pyrrolidin-1-yl-piperidin-1-yl)-methanone], the IC50 came out at 0.17 µM.

Take `CC(Oc1cc(-c2cccc(C(=O)N3CCN(C)CC3)n2)cnc1N)c1c(F)ccc(F)c1Cl` (stereo not shown) [Example I-519, {6′-Amino-5′-[1-(2-chloro-3,6-difluoro-phenyl)-ethoxy]-[2,3′]bipyridinyl-6-yl}-(4-methyl-piperazin-1-yl)-methanone]: the IC50 under setting [1] amounted to 0.466 µM.

As for `CC(Oc1cc(-c2ccc(C(=O)N3CCN(C)CC3)cn2)cnc1N)c1c(Cl)ccc(F)c1Cl` (stereo not shown) [Example I-527, {6′-Amino-5′-[1-(2,6-dichloro-3-fluoro-phenyl)-ethoxy]-[2,3′]bipyridinyl-5-yl}(4-methyl-piperazin-1-yl)-methanone], the IC50 under setting [1] was found to be 0.0385 µM.

For `Nc1ncc(-c2cccnc2)cc1OCc1ccccc1Cl` [Example I-493], the IC50 under setting [1] came to 4.6 µM.

Consider `Nc1ncc(-c2ccccc2)cc1OCc1ccc(F)cc1Cl` [Example I-89, 3-(2-Chloro-4-fluoro-benzyloxy)-5-phenyl-pyridin-2-ylamine], for which the IC50 stood at 17 µM.

As for `CC(C)C(Oc1nc(Br)cnc1N)c1c(F)ccc(F)c1Cl` (stereo not shown) [II(d), 5-Bromo-3-[1-(2-chloro-3,6-difluoro-phenyl)-2-methyl-propoxy]-pyrazin-2-ylamine], the IC50 is 18.1 µM.

With `Nc1ncc(-c2cccc(N3CCCC3)c2)cc1OCc1c(F)ccc(F)c1Cl` [Example I-268, 3-(2-Chloro-3,6-difluoro-benzyloxy)-5-(3-pyrrolidin-1-yl-phenyl)-pyridin-2-ylamine; compound with trifluoro-acetic acid], the half-inhibitory concentration (IC50) (Table 2) was 4 µM.
